Data from US11351095B2, “Stabilized emulsions with acidic agents” (Avon Products, Inc., priority 2018, dated 2022).

Assay: First normal stress difference of glycerin phases (AR-G2 rheometer)
Format: physicochemical
Experimental: The first normal stress difference of several glycerin phases (“Phase”) was measured prior to emulsification. A TA Instruments AR-G2 Rheometer was used to perform viscosity measurements for each of the phases A-E and a 100% glycerin phase using a 2 degree cone and plate geometry and a 52 micron gap. Measurements were taken at a shear stress of 100 Pa and 25° C. (77° F.).

With `OCC(O)CO` [Glycerin (100%), Glycerin] the “First Normal Stress Difference (N1 = 2 × Je × η^2 × γ^2, Pa)” value (glycerin phase prior to emulsification, shear stress of 100 Pa and 25° C., 2 degree cone and plate, 52 micron gap) was 0 Pa and the extensional viscosity (inferred from first normal stress difference) was “no extensional viscosity”.
